The values below come from PMC12562324, “Surfactin Structural Variants Differentially Modulate Plant Immune Responses” (Biomolecules, 2025).

The test system of assay [1] is Arabidopsis thaliana nia1nia2 double mutant roots. Nature of the assay: Srf-induced NO in nitrate reductase double mutant roots. The assay is classed as cell-based. The note with it: fluorescence 40 min after Srf treatment, compared with Col-0; n = 12 from three independent experiments; Figure 3D. How it is done: For the detection of intracellular NO, roots were processed as described above and 200 µL sterile water was replaced by 200 µL 5 μM DAF-DA in a buffered solution (10 mM Tris/HCl, pH = 7.4). Roots were incubated at room temperature for 1 h in the absence of light and then washed 3 times with Tris/HCl (10 mM, pH = 7.4). The fluorescence emitted by DAF-DA was detected by excitation at 495 nm and emission at 515 nm. Experiments where NO was measured after pretreatment with the calcium channel blocker or calcium chelator included an additional step where LaCl3 (10 mM; Merck Chemicals SA, Hoeilaart, Belgium) or EGTA (1 mM; Merck Chemicals SA, Hoeilaart, Belgium) was added three minutes before treatments. Data were processed as described above for ROS. For NO measurements in protoplasts, the suspension was incubated in the same conditions before being distributed (50 µL) in microplate wells and treated with the CLPs at a 10 µM final concentration or with 0.1% DMSO as a mock.

The next assay deals with Botrytis cinerea. Nature of the assay: ISR against B. cinerea in myb72-2 knockout mutant. The assay is classed as in vivo. The note with it: 10 µM Srf or mock (0.1% EtOH) before B. cinerea infection; n = 30 from two independent experiments; Figure 6C. How it is done: Plants were grown for 4 weeks in hydroponic conditions in Araponics systems containing a nutrient solution (0.25% (v/v) FLORAMICRO®, 0.25% (v/v) FLORABLOOM®, 0.25% (v/v) FLORAGRO®; General Hydroponics®, in volume ratio 1:1:1, as recommended by the manufacturer), with a photoperiod of 12 h and a temperature of 22 °C. Plants were then transferred into 10 mL vials filled with fresh nutrient solution and treated at the root level with CLPs or ethanol (mock treatment) to obtain final concentrations of 10 µM and 0.1%, respectively. After incubation for 24 h, plants were inoculated with Botrytis cinerea (Helotiales: Sclerotiniaceae) as the conidia solution. Spores were collected from B. cinerea grown on PDA plates for 4 weeks using a solution composed of 1.75 g/L KH2PO4; 0.74 g/L MgSO4; 4 g/L glucose, and 0.02% (v/v) Tween 20. After spore collection, the concentration was adjusted to 5 × 10^5 spores per mL, and spores were incubated at 30 °C for eight hours. Inoculation was conducted by inoculating a drop of 3 µL of conidia solution onto seven leaves per plant and fifteen plants per treatment. The number of spreading lesions was evaluated 96 h post infection.

Another assay relates to MYB72. Put plainly: Coumarin pathway reporter line pMYB72:GFP-GUS. In kind it is cell-based, Arabidopsis thaliana. The note with it: 10 µM Srf, 20 min post treatment, vs mock; n = 9 from three independent experiments; p < 0.05; Figure 6A. How it is done: Seedlings of the Arabidopsis thaliana reporter lines pMYB72:GFP-GUS and pBGLU42:GFP-GUS were germinated and cultivated for seven days under the aforementioned conditions. Uniform plantlets were then transferred to 96-well optical bottom black microplates (Greiner 96 µClear, Thermo Fisher Scientific, Hampton, VA, USA). Each well contained 150 µL of the hydroponic solution. Following transfer, the microplates were sealed and incubated in a growth chamber under controlled conditions (22 °C with a 12 h photoperiod). On the fifth day of this incubation, the plates were treated by adding 150 µL of either the CLP solution or a mock control to each well. Fluorescence measurements were subsequently acquired using a Spark microplate reader and configured with an excitation wavelength of 485 nm and an emission wavelength of 530 nm. Data were collected with nine measurement points acquired per well to ensure robustness.

The test system of the next assay is root tissues. The following applies: previous results; cited from earlier work. From the text:
Early immune responses associated with PTI include the rapid accumulation of extracellular ROS in the apoplast, generated mainly by the plasma membrane-located NADPH oxidase RBOHD or by cell wall peroxidases. Cytoplasmic hydrogen peroxide ([ROS]intra) production also emerges as an early defense response and could originate from various organelles, as reported for ETI, or in response to abiotic stresses or other small microbial compounds [9, 36, 37].

For the substance surfactin [Srf], in assay [1], the “NO production in nia1nia2 double mutant roots” value is listed as “fully conserved induction of NO production”. Moreover, the “ISR elicitor potential in myb72-2 knockout mutant compared to wild-type Col-0” value in the assay on Botrytis cinerea was “fully conserved”. For the same substance, in the assay on MYB72, the “MYB72 expression in roots of reporter line (GFP fluorescence)” value is recorded as “significant upregulation”. In the assay on root tissues, the “Burst in extracellular ROS in root tissues” value is recorded as “not a burst in extracellular ROS” and the “[ROS]intra production in root tissues” value was “triggers [ROS]intra production”.
